{"source": "patent US20030095958A1", "about": "“Inhibitors of bace” (priority 2001, published 2003)"}
{"target": "BACE (Homo sapiens, UniProt P56817)", "sequence (P56817 46-501)": "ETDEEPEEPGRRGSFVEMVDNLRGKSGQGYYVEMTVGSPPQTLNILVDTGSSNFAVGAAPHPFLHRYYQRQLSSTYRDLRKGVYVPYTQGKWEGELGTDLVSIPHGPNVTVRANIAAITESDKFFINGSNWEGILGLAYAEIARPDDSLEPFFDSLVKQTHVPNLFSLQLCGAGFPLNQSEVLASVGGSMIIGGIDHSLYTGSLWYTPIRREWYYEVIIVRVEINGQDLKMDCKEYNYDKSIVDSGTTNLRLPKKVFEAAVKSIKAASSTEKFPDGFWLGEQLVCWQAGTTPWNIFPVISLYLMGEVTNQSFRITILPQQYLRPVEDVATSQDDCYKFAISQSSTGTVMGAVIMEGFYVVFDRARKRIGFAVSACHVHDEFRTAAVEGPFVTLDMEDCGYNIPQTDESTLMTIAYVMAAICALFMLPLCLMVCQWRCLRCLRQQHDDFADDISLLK", "assay": "Ki Determination for the Inhibition of BACE (FS-1 peptide fluorescence cleavage assay)", "format": "biochemical", "conditions": "apparent Ki; 50 nM BACE, 10 μM FS-1 substrate, 0.1M sodium acetate pH 4.5", "procedure": "Compounds were tested against BACE activity using the following modifications of the method described in J. Ermolieff et al. (2000) Biochemistry 39(51):16263.\nAll compound evaluations were performed in 0.1M sodium acetate (buffer), pH, 4.5, 10 μM substrate (FS-1 peptide as described in the reference above; this is commercially available), varying concentrations of the test compound or control (DMSO to yeild 2% vol/vol), and 50 nM BACE. The assay volume is 100 μL.\nTwo microliters of the test compound dissolved in DMSO are added to each well in a 96-well microtiter plate. Seventy eight microliters of BACE are mixed with buffer and added to each well then incubated at room temperature for 15 minutes. A stock solution of 50 μM FS-1 substrate was prepared by addition of an aliquot of FS-1 substrate which was dissolved in DMSO to the buffer and mixed well. The reaction is initiated by addition of 20 μL of the FS-1 mix to the remaining, preincubated assay components. The cleavage reaction of substrate to product is measured using a Molecular Devices fluorescence plate reader with the excitation and emission filter pairs of 355 nm and 495 nm, respectively. Apparent Ki values are determined by fitting the data to the integrated equation for competitive tight binding inhibition.", "units": {"Ki": "µM"}}
{"smiles": "O=C1c2ccccc2C(=O)N1CC1CNCCC1c1ccc(COc2ccccc2C(F)(F)F)cc1", "note": "(stereo not drawn) [Compound 212, 2-{4-[4-(2-Trifluoromethyl-phenoxymethyl)-phenyl]-piperidin-3-ylmethyl}-isoindole-1,3-dione]", "Ki": "3 to 30"}
{"smiles": "O=C(NC(Cc1c[nH]c2ccccc12)C(=O)N1CCCC1C(=O)NCC1CNCCC1c1ccc(COc2ccccc2C(F)(F)F)cc1)OCC1c2ccccc2-c2ccccc21", "note": "(stereo not drawn) [Compound 230, {1-(1H-Indol-3-ylmethyl)-2-oxo-2-[2-{{4-[4-(2-trifluoromethyl-phenoxymethyl)-phenyl]-piperidin-3-ylmethyl}-carbamoyl)-pyrrolidin-1-yl]-ethyl}-carbamic acid 9H-fluoren-9-ylmethyl ester]", "Ki": "< 3"}
{"smiles": "O=C(Nc1ccc2ccccc2c1)NC1CNCCC1c1ccc(-c2ccccc2)cc1", "note": "(stereo not drawn) [Compound 403]", "Ki": "3 to 30"}
{"smiles": "O=C(OCc1ccc(COc2ccccc2C(F)(F)F)cc1C1=CCNCC1)c1ccc2ccccc2c1", "note": "[Compound 313, Naphthalene-2-carboxylic acid 2-(1,2,3,6-tetrahydro-pyridin-4-yl)-4-(2-trifluoromethyl-phenoxymethyl)-benzyl ester]", "Ki": "< 3"}
{"smiles": "O=C(Nc1cc(-c2ccc(C(F)(F)F)cc2F)ccc1N1CCNCC1)c1cccc2ccccc12", "note": "[Compound 161, Naphthalene-1-carboxylic acid (2′-fluoro-4-piperazin-1-yl-4′-trifluoromethyl-biphenyl-3-yl)-amide]", "Ki": "3 to 30"}
{"smiles": "O=C(CNC(=O)C(Cc1ccccc1)NC(=O)OCc1ccccc1)NCC1CNCCC1c1ccc(COc2ccccc2C(F)(F)F)cc1", "note": "(stereo not drawn) [Compound 225, (2-Phenyl-1-{[({4-[4-(2-trifluoromethyl-phenoxymethyl)-phenyl]-piperidin-3-ylmethyl}-carbamoyl)-methyl]-carbamoyl}-ethyl)-carbamic acid benzyl ester]", "Ki": "3 to 30"}
{"smiles": "FC(F)(F)c1ccccc1OCc1cc(-c2ccc3ccccc3c2)c(COc2ccccc2C(F)(F)F)cc1C1=CCNCC1", "note": "[Compound 339, 4-[4-Naphthalen-2-yl-2,5-bis-(2-trifluoromethyl-phenoxymethyl)-phenyl]-1,2,3,6-tetrahydro-pyridine]", "Ki": "3 to 30"}
{"smiles": "O=C(Nc1cc(COc2ccccc2C(F)(F)F)ccc1N1CCNCC1)c1cccc2ccccc12", "note": "[Compound 125, Naphthalene-1-carboxylic acid [2-piperazin-1-yl-5-(2-trifluoromethyl-phenoxymethyl)-phenyl]-amide]", "Ki": "3 to 30"}
{"smiles": "FC(F)(F)c1ccccc1OCc1cc(-c2ccccc2)ccc1C1=CCNCC1", "note": "[Compound 360, 4-[3-(2-Trifluoromethyl-phenoxymethyl)-biphenyl-4-yl]-1,2,3,6-tetrahydro-pyridine]", "Ki": "< 3"}
{"smiles": "O=C(Nc1cc(Br)c(COc2ccccc2C(F)(F)F)cc1N1CCNCC1)c1nccc2ccccc12", "note": "[Compound 183, Isoquinoline-1-carboxylic acid [5-bromo-2-piperazin-1-yl-4-(2-trifluoromethyl-phenoxymethyl)-phenyl]-amide]", "Ki": "< 3"}
{"smiles": "Cc1ccc(Oc2ccc(N3CCNCC3)c(NC(=O)c3cccc4ccccc34)c2)cc1", "note": "[Compound 142, Naphthalene-1-carboxylic acid (2-piperazin-1-yl-5-p-tolyloxy-phenyl)-amide]", "Ki": "3 to 30"}
{"smiles": "Cc1cc(N2CCNCC2)c(NC(=O)c2cccc3ccccc23)cc1-c1ccoc1", "note": "[Compound 154, Naphthalene-1-carboxylic acid (5-furan-3-yl-4-methyl-2-piperazin-1-yl-phenyl)-amide]", "Ki": "> 30"}
{"smiles": "O=C(Nc1cc(C(F)(F)F)ccc1N1CCNCC1)c1ccc2ccccc2c1", "note": "[Compound 113, Naphthalene-2-carboxylic acid (2-piperazin-1-yl-5-trifluoromethyl-phenyl)-amide]", "Ki": "3 to 30"}
{"smiles": "O=C(NCC1CNCCC1c1ccc(COc2ccccc2C(F)(F)F)cc1)Oc1cccc2ccccc12", "note": "(stereo not drawn) [Compound 229, {4-[4-(2-Trifluoromethyl-phenoxymethyl)-phenyl]-piperidin-3-ylmethyl}-carbamic acid naphthalen-1-yl ester]", "Ki": "< 3"}
{"smiles": "FC(F)(F)c1ccc(COc2ccc3c(c2)c2c(n3Cc3cccc4ccccc34)CNCC2)cc1", "note": "[Compound 533, 9-Naphthalen-1-ylmethyl-6-(4-trifluoromethyl-benzyloxy)-2,3,4,9-tetrahydro-1H-b-carboline]", "Ki": "< 3"}
{"smiles": "O=C(Nc1cc(-c2ccncc2)ccc1N1CCNCC1)c1cccc2ccccc12", "note": "[Compound 111, Naphthalene-1-carboxylic acid (2-piperazin-1-yl-5-pyridin-4-yl-phenyl)-amide]", "Ki": "3 to 30"}
{"smiles": "N#Cc1ccc(-c2ccc(N3CCNCC3)c(NC(=O)c3cccc4ccccc34)c2)cc1", "note": "[Compound 131, Naphthalene-1-carboxylic acid (4′-cyano-4-piperazin-1-yl-biphenyl-3-yl)-amide]", "Ki": "3 to 30"}
{"smiles": "O=C(Nc1cc(-c2ccc(F)cc2)ccc1N1CCNCC1)c1cccc2ccccc12", "note": "[Compound 103, Naphthalene-1-carboxylic acid (4′-fluoro-4-piperazin-1-yl-biphenyl-3-yl)-amide]", "Ki": "3 to 30"}
{"smiles": "O=C(NCc1ccccc1)C1CN(c2ccc(-c3ccc(C(F)(F)F)cc3)cc2NCc2ccc3ccccc3c2)CCN1", "note": "(stereo not drawn) [Compound 194, 4-{3-[(Naphthalen-2-ylmethyl)-amino]-4′-trifluoromethyl-biphenyl-4-yl}-piperazine-2-carboxylic acid benzylamide]", "Ki": "< 3"}
{"smiles": "O=S(=O)(Nc1cc(C(F)(F)F)ccc1N1CCNCC1)c1ccc(-c2ccc(C(F)(F)F)cc2)cc1", "note": "[Compound 171, 4′-Trifluoromethyl-biphenyl-4-sulfonic acid (2-piperazin-1-yl-5-trifluoromethyl-phenyl)-amide]", "Ki": "< 3"}
{"smiles": "O=C(c1cccc2ccccc12)n1c2c(c3cc(OCc4cccc(C(F)(F)F)c4)ccc31)CCNC2", "note": "[Compound 508, Naphthalen-1-yl-[6-(3-trifluoromethyl-benzyloxy)-1,2,3,4-tetrahydro-b-carbolin-9-yl]-methanone]", "Ki": "< 3"}
{"smiles": "FC(F)(F)c1cccc(COc2ccc3c(c2)c2c(n3Cc3cccc4ccccc34)CNCC2)c1", "note": "[Compound 509, 9-Naphthalen-1-ylmethyl-6-(3-trifluoromethyl-benzyloxy)-2,3,4,9-tetrahydro-1H-b-carboline]", "Ki": "< 3"}
{"smiles": "O=C(Nc1cc(-c2ccoc2)c(COc2ccccc2C(F)(F)F)cc1N1CCNCC1)c1nccc2ccccc12", "note": "[Compound 187, Isoquinoline-1-carboxylic acid [5-furan-3-yl-2-piperazin-1-yl-4-(2-trifluoromethyl-phenoxymethyl)-phenyl]-amide]", "Ki": "< 3"}
{"smiles": "Cc1cccc(-c2ccc(N3CCNCC3)c(NC(=O)c3cccc4ccccc34)c2)c1", "note": "[Compound 126, Naphthalene-1-carboxylic acid (3′-methyl-4-piperazin-1-yl-biphenyl-3-yl)-amide]", "Ki": "3 to 30"}
{"smiles": "c1ccc(-c2ccc(C3CCNCC3OCc3ccc4ccccc4c3)cc2)cc1", "note": "(stereo not drawn) [Compound 401]", "Ki": "< 3"}
{"smiles": "O=C(OCc1ccccc1-c1cc(COc2ccccc2C(F)(F)F)c(C2=CCNCC2)cc1COc1ccccc1C(F)(F)F)c1ccco1", "note": "[Compound 370, Furan-2-carboxylic acid 4′-(1,2,3,6-tetrahydro-pyridin-4-yl)-2′,5′-bis-(2-trifluoromethyl-phenoxymethyl)-biphenyl-2-ylmethyl ester]", "Ki": "< 3"}
{"smiles": "O=C(Nc1cc(-c2ccc(C(F)(F)F)cc2)ccc1N1CCNCC1)c1cccc2ccccc12", "note": "[Compound 129, Naphthalene-1-carboxylic acid (4-piperazin-1-yl-4′-trifluoromethyl-biphenyl-3-yl)-amide]", "Ki": "< 3"}
{"smiles": "CCN(CC)S(=O)(=O)c1ccc(-c2ccc(N3CCNCC3)c(NC(=O)c3cccc4ccccc34)c2)cc1", "note": "[Compound 145, Naphthalene-1-carboxylic acid (4′-diethylsulfamoyl-4-piperazin-1-yl-biphenyl-3-yl)-amide]", "Ki": "3 to 30"}
{"smiles": "O=C(Nc1cc(-c2ccc(O)cc2)c(COc2ccccc2C(F)(F)F)cc1N1CCNCC1)c1nccc2ccccc12", "note": "[Compound 186, Isoquinoline-1-carboxylic acid [4′-hydroxy-4-piperazin-1-yl-6-(2-trifluoromethyl-phenoxymethyl)-biphenyl-3-yl]-amide]", "Ki": "< 3"}
{"smiles": "Oc1ccc(-c2ccc(C3=CCNCC3)c(COc3ccccc3C(F)(F)F)c2)cc1", "note": "[Compound 361, 4′-(1,2,3,6-Tetrahydro-pyridin-4-yl)-3′-(2-trifluoromethyl-phenoxymethyl)-biphenyl-4-ol]", "Ki": "3 to 30"}
{"smiles": "FC(F)(F)c1ccccc1OCc1cc(Br)ccc1C1=CCNCC1", "note": "[Compound 377, 4-[4-Bromo-2-(2-trifluoromethyl-phenoxymethyl)-phenyl]-1,2,3,6-tetrahydro-pyridine]", "Ki": "3 to 30"}
{"smiles": "OCc1ccccc1-c1cc(COc2ccccc2C(F)(F)F)c(C2=CCNCC2)cc1COc1ccccc1C(F)(F)F", "note": "[Compound 367, [4′-(1,2,3,6-Tetrahydro-pyridin-4-yl)-2′,5′-bis-(2-trifluoromethyl-phenoxymethyl)-biphenyl-2-yl]-methanol]", "Ki": "< 3"}
{"smiles": "O=C(Nc1cc(-c2ccc(S(=O)(=O)NCc3ccccc3)c(F)c2)ccc1N1CCNCC1)c1cccc2ccccc12", "note": "[Compound 163, Naphthalene-1-carboxylic acid (4′-benzylsulfamoyl-3′-fluoro-4-piperazin-1-yl-biphenyl-3-yl)-amide]", "Ki": "< 3"}
